Assay results: ChEMBL document CHEMBL1151680, “Cytotoxic amides from the octocoral Telesto riisei” (1996)
≈ marks a conversion by molar mass, not a printed value.

Test system: P388
Test: Cytotoxicity against mouse P388 cells
Assay type: functional
Conditions: read-out: ED50 (the source's name)

Row | Compound | EC50
1 | CC(CO)CCC[C@@H](C)[C@H]1CC[C@H]2[C@@H]3C[C@@H](O)[C@@]4(O)C[C@@H](O)CC[C@]4(C)[C@H]3CC[C@]12C (some centres not stated) | 1.3 µg/mL (≈ 2.98 µM)
2 | CC(=O)OCC(C)CCC[C@@H](C)[C@H]1CC[C@H]2[C@@H]3C[C@@H](O)[C@@]4(O)C[C@@H](O)CC[C@]4(C)[C@H]3CC[C@]12C (some centres not stated) | 2.4 µg/mL (≈ 5.01 µM)
